Patent US12076307B2, “Compositions for prevention or treatment of acute radiation syndrome and other radiation exposure” (priority 2017, dated 2024)
Where two headings read alike, the source gives them in different places.

Assays:
P-gp = target: T1, P-gp (Homo sapiens, UniProt P08183); assay: Drug transporter inhibition, P-gp; type: in vitro ADME; details: [3H]digoxin; transfected LLC-PK1 cells
T1 construct: expressed in transfected cells; host or cells: LLC-PK1
Procedure: This study examined the potential of EC-18 to interact with the transporter proteins that have been known to be involved in the absorption of commercially available drugs. EC-18 was pre-incubated with HEK-293 cells and LLC-PK1 cells that were transfected with the genes of most drug transporters as follows: OATP1B1, OATP1B3, OAT1, OAT3 and OCT2, and BCRP and P-gp, respectively.

SD rat = assay: Embryo-fetal developmental toxicity study, SD rat; type: in vivo; details: for mortality: 0, 500, 1000, 2000 mg/kg
Description: (§1) Various toxicology studies have been performed. All studies were GLP-compliant unless otherwise noted.

[1] = Embryo-fetal developmental toxicity study, SD rat; type: in vivo; details: SD, rat, in vivo; definitive study; Oral 11 days
Description: as §1

[2] = test system: Chinese hamster lung cells (CHL/IU); assay: Chromosomal aberration test; type: cell-based; details: 6 and 24 hrs; with or without metabolic activation
Description: as §1

[3] = test system: mice, 5-FU + X-radiation 20 Gy on heads and necks; assay: CRIOM (chemoradiation-induced oral mucositis) murine model; type: in vivo, mouse
Description: Radiation-Induced Coagulopathy is worsened in more severe syndromes including mucositis in the oral cavity and GI. As described above, exposure to radiation stimulates DAMP release and DAMP recognized by PRR results in an inflammatory response that causes apoptosis, mucosal atrophy, and ulceration. Specifically, TLR-4 has been identified as a major PRR, which plays a critical role in the pathogenesis of mucosal injury (Vasconcelos et al., 2016). To investigate the mitigating effect of EC-18 against CRIOM, different doses of EC-18 were administered to mice daily. CRIOM mouse model was established using concurrent treatments with 5-FU (100 mg/kg, i.p.) and X-radiation (20 Gy) on heads and necks of mice. PBS or EC-18 (100 and 250 mg/kg, p.o.) was administered daily (n=5 for each group). The body weights of mice were observed, and the mice were sacrificed on day 9.

[4] = Pathway of excretion in rats after single oral [14C]EC-18; type: in vivo, rat; details: 50 mg/kg oral, 50 mg/kg
Procedure: To assess the routes of EC-18 excretion, male rats were administered a single dose of [^14C]EC-18 (oral dose of 50 mg/kg), after which, radioactive concentrations were measured in urine, feces, and exhaled air in the chamber of the animals for 168 hrs, and in the body after the autopsy.

[5] = test system: S. typhi-murium (TA98, TA100, TA1535, TA1537), E. coli (WP2uvrA(pKM101)); type: cell-based; details: in vitro; 48 hr; 312.5-5000 μg/plate
Description: as §1

CYP3A4 = details: for Enzyme Activity CYP3A4: n=3
Procedure: This test was performed to determine if EC-18 was capable of inducing CYP1A2 and CYP3A4 activities in human primary hepatocytes.

[6] = In vitro metabolite screening, monkey liver microsomes; type: in vitro ADME; details: NHP, N=2
Procedure: [^14C]EC-18 or the positive control (7-ethoxycoumarin; 7-EC) reacted with microsomes prepared from hepatocytes of rats, dogs, monkeys, and humans, with or without cofactors, for 60 and 120 min. Then, the residual EC-18 concentration over time was measured by LC-RID ([^14C]EC-18) or LC-MS/MS (7-EC) (FIG. 63 and FIG. 64).
The LC-RID chromatographic profiles of radioactive metabolites produced in the 2-hr incubation reaction mixtures of the same test systems A, B, and C used to assess the metabolic and non-metabolic elimination rates of EC-18 were compared to the LC-UV chromatographic profiles of the synthetic reference material. […] The relative radioactivity of EC-18 accounted for 42-67% of total radioactivity. The peaks designated as M2, M3, and M5 were also determined in all species, and their relative radioactivity accounted for 12-34% of total radioactivity. The peaks of M4 and M6 were determined in monkeys and humans. M1 was abundantly detected in all species, but it was assumed to be a peak of early elution. The LC-UV chromatograms of reaction mixtures in each test system (FIGS. 65A-65C) and the relative radioactivity of the screened metabolites are shown in Table 25.

[7] = test system: Balb/c mice, TBI 6.5 or 8 Gy; assay: Radiation-induced skin damage (erythema) in lethal ARS mouse models; type: in vivo
Description: In order to evaluate effects of PLAG on recovery skin damage of animal models exposed to radiation, the following test groups were constructed as shown in Table 4 and results are shown in FIGS. 13-15. As discussed in Examples above, the first group of untreate group (negative control) of mice after radiation was compared to the second group of treated group of mice with PLAG after radiation.
In addition to the ARS survival studies that have been conducted in mice, a series of studies that probe secondary measures of efficacy in radiation-induced skin damage in the Balb/c mice (n=10/sex/group). […] The development of skin damage (erythema and reddening) on the tails were evaluated.
In the following study, Balb/c mice (n=5 females/group) were exposed with a supra-lethal radiation dosage of 8 Gy and treated with EC-18 daily at 250 mg/kg/day for 17 days.
The secondary measures of EC-18's efficacy on the supra-LD (8 Gy) of radiation-induced skin damage were assessed. Female BALB/c mice (9 weeks of age) were randomly divided into 2 cohorts and daily administered in-life with the vehicle control (PBS) and EC-18 at 250 mg/kg (n=5/each cohort).

T1 sequence (P08183 whole entry): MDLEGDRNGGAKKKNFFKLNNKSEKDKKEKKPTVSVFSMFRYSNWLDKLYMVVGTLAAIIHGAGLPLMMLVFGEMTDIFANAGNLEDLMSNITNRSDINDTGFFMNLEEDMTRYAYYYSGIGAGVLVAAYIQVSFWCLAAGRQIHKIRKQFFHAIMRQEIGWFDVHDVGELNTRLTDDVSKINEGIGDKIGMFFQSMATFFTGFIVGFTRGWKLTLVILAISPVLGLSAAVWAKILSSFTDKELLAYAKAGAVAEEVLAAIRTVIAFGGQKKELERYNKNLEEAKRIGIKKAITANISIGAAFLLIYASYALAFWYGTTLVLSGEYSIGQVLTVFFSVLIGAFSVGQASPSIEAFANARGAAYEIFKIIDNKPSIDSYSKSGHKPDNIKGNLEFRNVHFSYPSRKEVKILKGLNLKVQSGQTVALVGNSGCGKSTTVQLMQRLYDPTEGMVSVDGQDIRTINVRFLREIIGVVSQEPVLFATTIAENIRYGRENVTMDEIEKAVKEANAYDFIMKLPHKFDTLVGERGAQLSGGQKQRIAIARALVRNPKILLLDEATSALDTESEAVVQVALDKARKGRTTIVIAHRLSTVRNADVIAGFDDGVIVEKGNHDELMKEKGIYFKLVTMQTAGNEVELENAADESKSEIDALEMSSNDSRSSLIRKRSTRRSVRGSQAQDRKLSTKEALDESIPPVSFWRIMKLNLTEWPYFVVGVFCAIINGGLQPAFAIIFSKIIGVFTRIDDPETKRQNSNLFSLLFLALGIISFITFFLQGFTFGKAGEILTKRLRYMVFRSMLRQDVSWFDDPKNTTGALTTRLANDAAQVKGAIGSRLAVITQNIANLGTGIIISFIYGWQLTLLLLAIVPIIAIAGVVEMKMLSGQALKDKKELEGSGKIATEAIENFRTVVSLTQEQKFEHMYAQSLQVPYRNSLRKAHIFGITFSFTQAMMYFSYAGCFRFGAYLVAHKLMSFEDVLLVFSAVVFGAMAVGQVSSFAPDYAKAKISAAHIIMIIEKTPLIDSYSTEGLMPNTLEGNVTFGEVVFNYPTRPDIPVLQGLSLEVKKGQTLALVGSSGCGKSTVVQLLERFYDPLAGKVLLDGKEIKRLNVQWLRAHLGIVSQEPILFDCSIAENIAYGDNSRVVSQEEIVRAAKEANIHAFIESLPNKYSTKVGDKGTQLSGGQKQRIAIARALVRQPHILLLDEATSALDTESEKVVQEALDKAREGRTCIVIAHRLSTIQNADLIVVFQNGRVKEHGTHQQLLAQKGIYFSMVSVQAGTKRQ

CCCCC/C=C\C/C=C\CCCCCCCC(=O)OC(COC(C)=O)COC(=O)CCCCCCCCCCCCCCC (stereo not shown) [EC-18, 1-palmitoyl-2-linoleoyl-3-acetylglycerol]
IC50 (P-gp): > 32 µM
significant differences in implantation rate, male-to-female ratio of fetuses, fetal mortality rate vs control (SD rat; DRF study, Oral 11 days): There were no
mortality (SD rat; DRF study, Oral 11 days (day-7 to day-17 of pregnancy)): No dead animals
findings (SD rat; definitive study, Oral 11 days): No specific findings
mortality (SD rat; definitive study, Oral 11 days): No dead animals
NOAEL at 11 days [1]: 2000 mg/kg/day
inducible effects on chromosomal aberration [2]: EC-18 didn't have
thickness of the oral epithelium ([3]; ChemoRT + EC-18): protective effect
DAMPs (HMGB1, HSP90) in serum ([3]; ChemoRT + EC-18 250 mg/kg): subsided levels of DAMPs
MIP-2 and IL-6 in serum ([3]; ChemoRT + EC-18 250 mg/kg): substantially less systemic inflammation
expression level of CXCL2 and IL-6 mRNA in tongues ([3]; ChemoRT + EC-18 250 mg/kg): downregulated
necroptotic signaling axis (RIPK1, RIPK3, MLKL phosphorylation) in tongues ([3]; ChemoRT + EC-18 250 mg/kg): significantly modulated
neutrophils recruited at oral epithelium (IHC) ([3]; ChemoRT + EC-18 250 mg/kg): did not
OM score and rates of ulceration ([3]; ChemoRT + EC-18 100 and 250 mg/kg): statistically improvement of OM score and lower rates of ulceration dose-dependently
body weight ([3]; ChemoRT + EC-18 100 and 250 mg/kg p.o. daily): did not exhibit a significant weight loss
Cumulative Radioactive Concentration Relative to the Administered Dose, Exhaled Air ([4]; 0-24 hr): approximately 71%
Cumulative Radioactive Concentration Relative to the Administered Dose, Feces ([4]; 0-24 hr): ~3%
Cumulative Radioactive Concentration Relative to the Administered Dose, Total ([4]; 0-24 hr): approximately 76%
Cumulative Radioactive Concentration Relative to the Administered Dose, Urine ([4]; 0-24 hr): ~2%
Cumulative Radioactive Concentration Relative to the Administered Dose, Exhaled Air ([4]; 0-72 hr): ~77%
Cumulative Radioactive Concentration Relative to the Administered Dose, Feces ([4]; 0-72 hr): ~4%
Cumulative Radioactive Concentration Relative to the Administered Dose, Total ([4]; 0-72 hr): approximately 83%
Cumulative Radioactive Concentration Relative to the Administered Dose, Urine ([4]; 0-72 hr): ~2%
Cumulative Radioactive Concentration Relative to the Administered Dose, Cadaver ([4]; 0-168 hr): approximately 10%
Cumulative Radioactive Concentration Relative to the Administered Dose, Exhaled Air ([4]; 0-168 hr): ~79%
Cumulative Radioactive Concentration Relative to the Administered Dose, Feces ([4]; 0-168 hr): ~4%
Cumulative Radioactive Concentration Relative to the Administered Dose, Total ([4]; 0-168 hr): ~96%
Cumulative Radioactive Concentration Relative to the Administered Dose, Urine ([4]; 0-168 hr): ~2%
induction of reverse mutation [5]: No potential of EC-18
Enzyme Activity CYP3A4 (CYP3A4; 1 μM): 3.44 ± 0.73 pmol/106 Cells/Min
Enzyme Activity CYP3A4 (CYP3A4; 10 μM): 3.11 ± 0.25 pmol/106 Cells/Min
Enzyme Activity CYP3A4 (CYP3A4; 100 μM): 3.61 ± 0.28 pmol/106 Cells/Min
potential to induce CYP3A4 (CYP3A4; up to 100 μM): no potential to induce
Mean Peak Area in LC-RID ([6]; A (NADPH added), [14C]EC-18 2 hrs): 46.8%
Mean Peak Area in LC-RID ([6]; B (NADPH, PAPS, UDPGA added), 2 hrs): 46.0%
Mean Peak Area in LC-RID ([6]; C (no cofactor added), 2 hrs): 41.8%
skin damage (erythema and reddening) on the tails vs PBS ([7]; 6.5 Gy, 250 mg/kg/day 30 days): substantial reduction of tail erythema
skin damage (necrosis, ulceration, blistering, hair loss) on tails and feet vs PBS ([7]; 8 Gy, 250 mg/kg/day 17 days, n=5 females): extensively reduced
mice with any skin damage on the tails ([7]; 8 Gy, 250 mg/kg, n=5, day 10): none of the five
mice with slight hemorrhagic telangiectasia on the front right feet ([7]; 8 Gy, 250 mg/kg, n=5, day 10): Only one individual
